According to patent publication US20240208937A1, “Compounds and Their Use for Treatment of Hemoglobinopathies” (Bristol-Myers Squibb Company, priority 2022, published 2024):

How the values were obtained:
[1] = molecular target: WIZ (Widely interspaced zinc finger) (Homo sapiens (Human), UniProt O95785+Q96SW2); assay: HUDEP-2 WIZ HiBiT degradation assay; format: cell-based; conditions: HUDEP-2 WIZ HiBiT cells, 24 hours treatment, luminescence; for DC50: read-out: WIZ EC50
Experimental: (§1) The HiBiT degradation assay for WIZ and ZBTB7A in HUDEP-2 cells was performed as described below. HUDEP-2 cells engineered to express a HiBiT tag in either the WIZ (Widely interspaced zinc finger) or ZBTB7A (Zinc Finger And BTB Domain Containing 7A) proteins were maintained in low attachment flasks in StemSpan SFEM II media supplemented with Penicillin-Streptomycin (50 U/mL), rhSCF (50 ng/mL), rhEPO (3 IU/mL), dexamethasone (0.4 μg/mL) and doxycycline (1 μg/mL). Prior to start of the assay, cell count and viability were measured by trypan blue exclusion using the Vi-cell XR cell viability analyzer. For the HUDEP-2 WIZ HiBiT assay, cells were transferred to a 50 mL conical and centrifuged at 500 g for five minutes. Cells were resuspended in fresh StemSpan SFEM II media supplemented with Penicillin-Streptomycin (50 U/mL), rhSCF (50 ng/mL), rhEPO (3 IU/mL), dexamethasone (0.4 μg/mL) and doxycycline (1 μg/mL) at a density of 1.0×10^6 cells/ml. Forty microliters of cell suspension was dispensed into 384-well Low Flange White Flat Bottom Polystyrene TC-treated Microplates containing pre-dispensed compounds, using a VIAFLO 384 liquid hander, and placed in a 37° C. incubator with 5% CO2. […] After 24 hours of treatment, 40 μL Nano-Glo HiBiT Lytic Detection System reagent was dispensed into each well using a VIAFLO 384 liquid hander. Plates were incubated for 25 minutes at room temperature and the luminescence was read as relative luminescent units using the EnVision plate reader. EC50 and Y-min values were calculated using curves calculated from dotmatics software after the normalization to the DMSO control of 10 different concentrations: 10, 3.33, 1.11, 0.37, 0.12, 0.04 0.0137, 0.0046, 0.0015 and 0.0005 μM respectively.

[2] = molecular target: ZBTB7A (Zinc Finger And BTB Domain Containing 7A) (Homo sapiens (Human), UniProt O95365+Q96SW2); assay: HUDEP-2 ZBTB7A HiBiT degradation assay; format: cell-based; conditions: HUDEP-2 ZBTB7A HiBiT cells, 24 hours treatment, luminescence; for DC50: read-out: ZBTB7A EC50
Chain of ZBTB7A (Zinc Finger And BTB Domain Containing 7A) (O95365 whole entry, the tested form may be a part): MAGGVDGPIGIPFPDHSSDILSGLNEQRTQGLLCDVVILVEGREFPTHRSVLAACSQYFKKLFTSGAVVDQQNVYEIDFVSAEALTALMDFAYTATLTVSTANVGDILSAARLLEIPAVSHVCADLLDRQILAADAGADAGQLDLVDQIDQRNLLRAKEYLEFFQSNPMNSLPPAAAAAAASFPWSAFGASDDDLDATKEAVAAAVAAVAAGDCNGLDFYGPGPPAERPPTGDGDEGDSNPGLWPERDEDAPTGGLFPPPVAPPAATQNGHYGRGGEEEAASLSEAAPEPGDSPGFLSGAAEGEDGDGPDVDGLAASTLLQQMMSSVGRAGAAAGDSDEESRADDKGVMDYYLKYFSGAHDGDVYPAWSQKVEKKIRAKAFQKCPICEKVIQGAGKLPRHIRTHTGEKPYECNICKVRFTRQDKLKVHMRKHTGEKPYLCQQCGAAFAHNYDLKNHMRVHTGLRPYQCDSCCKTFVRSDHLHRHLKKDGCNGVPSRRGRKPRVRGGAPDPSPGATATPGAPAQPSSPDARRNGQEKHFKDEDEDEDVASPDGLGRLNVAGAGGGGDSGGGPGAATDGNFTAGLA
Chain of ZBTB7A (Zinc Finger And BTB Domain Containing 7A) (Q96SW2 whole entry, the tested form may be a part): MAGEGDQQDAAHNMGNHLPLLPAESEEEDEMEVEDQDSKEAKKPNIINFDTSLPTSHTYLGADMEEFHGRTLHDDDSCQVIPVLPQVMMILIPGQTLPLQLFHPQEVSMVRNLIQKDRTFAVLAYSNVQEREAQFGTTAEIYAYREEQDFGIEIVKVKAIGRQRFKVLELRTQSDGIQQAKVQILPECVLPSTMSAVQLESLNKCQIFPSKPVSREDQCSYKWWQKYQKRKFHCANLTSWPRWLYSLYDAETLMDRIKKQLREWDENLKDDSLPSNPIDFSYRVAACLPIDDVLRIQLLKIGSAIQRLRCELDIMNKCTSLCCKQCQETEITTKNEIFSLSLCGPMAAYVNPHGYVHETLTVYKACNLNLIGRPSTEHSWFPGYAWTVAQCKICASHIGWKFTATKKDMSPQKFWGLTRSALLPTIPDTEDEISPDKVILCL
Chain of ZBTB7A (Zinc Finger And BTB Domain Containing 7A) (Q16531 whole entry partner, the tested form may be a part): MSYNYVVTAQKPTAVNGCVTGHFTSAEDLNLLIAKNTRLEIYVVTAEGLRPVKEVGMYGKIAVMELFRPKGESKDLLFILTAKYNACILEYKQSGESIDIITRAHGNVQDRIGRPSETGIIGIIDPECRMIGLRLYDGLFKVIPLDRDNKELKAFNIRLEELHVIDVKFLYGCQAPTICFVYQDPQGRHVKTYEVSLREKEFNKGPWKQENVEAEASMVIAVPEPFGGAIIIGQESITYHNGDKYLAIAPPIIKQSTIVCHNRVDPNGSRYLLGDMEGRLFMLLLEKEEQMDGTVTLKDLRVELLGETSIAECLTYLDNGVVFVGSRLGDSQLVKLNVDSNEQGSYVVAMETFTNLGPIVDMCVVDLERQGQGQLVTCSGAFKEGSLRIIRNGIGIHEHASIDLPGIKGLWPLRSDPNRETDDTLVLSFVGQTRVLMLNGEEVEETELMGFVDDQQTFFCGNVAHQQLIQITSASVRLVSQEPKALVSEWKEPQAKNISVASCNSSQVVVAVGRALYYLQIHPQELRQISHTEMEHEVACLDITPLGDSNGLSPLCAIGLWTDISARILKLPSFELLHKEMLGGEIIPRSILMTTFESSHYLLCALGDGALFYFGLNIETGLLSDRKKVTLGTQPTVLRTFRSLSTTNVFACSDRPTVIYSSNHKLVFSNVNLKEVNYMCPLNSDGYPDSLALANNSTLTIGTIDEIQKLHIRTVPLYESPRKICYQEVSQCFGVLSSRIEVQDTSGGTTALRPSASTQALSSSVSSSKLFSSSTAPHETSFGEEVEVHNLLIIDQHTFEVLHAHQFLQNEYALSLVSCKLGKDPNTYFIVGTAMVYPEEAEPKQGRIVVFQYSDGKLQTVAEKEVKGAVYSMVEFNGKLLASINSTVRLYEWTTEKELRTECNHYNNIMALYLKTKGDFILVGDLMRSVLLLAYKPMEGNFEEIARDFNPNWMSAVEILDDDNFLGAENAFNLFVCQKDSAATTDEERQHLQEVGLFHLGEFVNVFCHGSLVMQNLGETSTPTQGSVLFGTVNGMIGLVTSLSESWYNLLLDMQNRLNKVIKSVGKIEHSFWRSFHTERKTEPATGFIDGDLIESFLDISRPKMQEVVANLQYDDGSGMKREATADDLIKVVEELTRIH
Experimental: as §1
For the HUDEP-2 ZBTB7A HiBiT assay, cell count and viability were measured by trypan blue exclusion using the Vi-cell XR cell viability analyzer and the cells were transferred to a 50 mL conical and centrifuged at 500 g for five minutes. Cells were resuspended in fresh IMDM media supplemented with L-Glutamine (1×), Penicillin-Streptomycin (50 U/mL), holo-transferrin (330 μg/mL), heparin (2 IU/mL), r-human Insulin (10 μg/mL), rhEPO (3 IU/mL), rhSCF (100 ng/mL)+Dox (1 μg/mL) and 5% human plasma in low attachment flasks, which were placed in a 37° C. incubator with 5% CO2. After 48 hours, cell count and viability were measured by trypan blue exclusion using the Vi-cell XR cell viability analyzer. The HUDEP-2 ZBTB7A cells were transferred to a 50 mL conical, centrifuged at 500 g for five minutes and resuspended at a density of 1.0×10^6 cells/ml in IMDM media supplemented with L-Glutamine (1×), Penicillin-Streptomycin (50 U/mL), holo-transferrin (330 μg/mL), heparin (2 IU/mL), r-human Insulin (10 μg/mL), rhEPO (3 IU/mL), rhSCF (100 ng/mL)+Dox (1 μg/mL) and 5% human plasma. Forty microliters of cell suspension was dispensed into 384-well Low Flange White Flat Bottom Polystyrene TC-treated Microplates containing pre-dispensed compounds, using a VIAFLO 384 liquid hander, and placed in a 37° C. incubator with 5% CO2. […] After 24 hours of treatment, 40 μL Nano-Glo HiBiT Lytic Detection System reagent was dispensed into each well using a VIAFLO 384 liquid hander. Plates were incubated for 25 minutes at room temperature and the luminescence was read as relative luminescent units using the EnVision plate reader. EC50 and Y-min values were calculated using curves calculated from dotmatics software after the normalization to the DMSO control of 10 different concentrations: 10, 3.33, 1.11, 0.37, 0.12, 0.04 0.0137, 0.0046, 0.0015 and 0.0005 μM respectively.

Chain of WIZ (Widely interspaced zinc finger) (O95785 whole entry, the tested form may be a part): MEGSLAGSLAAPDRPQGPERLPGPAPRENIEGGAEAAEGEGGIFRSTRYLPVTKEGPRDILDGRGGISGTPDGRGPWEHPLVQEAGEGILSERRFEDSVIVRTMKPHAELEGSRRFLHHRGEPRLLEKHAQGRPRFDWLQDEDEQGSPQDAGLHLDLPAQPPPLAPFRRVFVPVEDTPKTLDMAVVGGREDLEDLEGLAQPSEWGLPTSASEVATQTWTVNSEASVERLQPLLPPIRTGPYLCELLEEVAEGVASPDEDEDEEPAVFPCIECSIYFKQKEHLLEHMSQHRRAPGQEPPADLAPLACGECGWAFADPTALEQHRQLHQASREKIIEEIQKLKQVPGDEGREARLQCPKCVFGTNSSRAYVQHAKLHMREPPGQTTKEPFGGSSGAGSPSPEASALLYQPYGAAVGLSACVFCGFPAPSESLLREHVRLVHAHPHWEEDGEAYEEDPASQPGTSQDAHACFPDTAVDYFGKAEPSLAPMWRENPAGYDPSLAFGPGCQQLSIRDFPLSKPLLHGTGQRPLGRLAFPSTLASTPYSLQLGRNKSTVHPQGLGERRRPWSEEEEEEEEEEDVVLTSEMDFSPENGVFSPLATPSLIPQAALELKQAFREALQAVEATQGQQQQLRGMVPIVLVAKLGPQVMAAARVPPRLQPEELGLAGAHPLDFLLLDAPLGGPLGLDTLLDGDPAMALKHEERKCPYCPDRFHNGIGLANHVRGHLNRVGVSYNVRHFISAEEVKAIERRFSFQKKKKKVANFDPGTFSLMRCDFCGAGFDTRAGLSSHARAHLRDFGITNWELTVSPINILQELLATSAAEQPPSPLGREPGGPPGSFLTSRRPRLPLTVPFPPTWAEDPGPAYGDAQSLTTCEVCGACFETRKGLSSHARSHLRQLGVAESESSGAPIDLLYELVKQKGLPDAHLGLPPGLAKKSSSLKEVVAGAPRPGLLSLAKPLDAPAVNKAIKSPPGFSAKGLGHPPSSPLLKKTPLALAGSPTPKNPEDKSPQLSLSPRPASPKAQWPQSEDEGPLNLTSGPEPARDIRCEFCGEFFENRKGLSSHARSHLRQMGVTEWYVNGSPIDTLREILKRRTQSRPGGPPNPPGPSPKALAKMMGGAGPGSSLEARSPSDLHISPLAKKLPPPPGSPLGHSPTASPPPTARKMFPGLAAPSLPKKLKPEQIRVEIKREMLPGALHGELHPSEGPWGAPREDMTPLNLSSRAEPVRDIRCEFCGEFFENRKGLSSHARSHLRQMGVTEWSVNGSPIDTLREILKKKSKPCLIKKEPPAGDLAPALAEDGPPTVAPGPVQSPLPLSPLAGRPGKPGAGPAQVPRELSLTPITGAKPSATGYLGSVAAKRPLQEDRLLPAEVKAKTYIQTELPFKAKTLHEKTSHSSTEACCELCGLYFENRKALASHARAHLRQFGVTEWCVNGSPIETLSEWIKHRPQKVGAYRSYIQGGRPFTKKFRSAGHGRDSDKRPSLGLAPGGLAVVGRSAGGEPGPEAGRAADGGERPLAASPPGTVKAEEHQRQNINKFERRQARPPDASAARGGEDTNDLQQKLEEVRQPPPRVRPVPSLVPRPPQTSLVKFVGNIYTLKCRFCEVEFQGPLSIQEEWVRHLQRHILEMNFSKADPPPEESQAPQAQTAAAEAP
Chain of WIZ (Widely interspaced zinc finger) (Q96SW2 whole entry, the tested form may be a part): as the sequence (Q96SW2 whole entry, the tested form may be a part) above
Chain of WIZ (Widely interspaced zinc finger) (Q16531 whole entry partner, the tested form may be a part): as the sequence (Q16531 whole entry partner, the tested form may be a part) above

| SMILES | DC50 [1] [nM] | DC50 [2] [nM] | EC50 [2] [nM] | EC50 [1] [nM] |
| --- | --- | --- | --- | --- |
| Cc1cc2c(cc1Nc1cccc3c1C(=O)N(C1CCC(=O)NC1=O)C3=O)N(C)C(=O)CC2 (stereo not shown) [Compound 33, 4-((1,6-dimethyl-2-oxo-1,2,3,4-tetrahydroquinolin-7-yl)amino)-2-(2,6-dioxopiperidin-3-yl)isoindoline-1,3-dione] | 10 to 100 | 30 to 100 | – | – |
| COc1nccc(-c2cc3c(cc2Nc2cccc4c2C(=O)N(C2CCC(=O)NC2=O)C4=O)N(C)C(=O)CC3)c1F (stereo not shown) [Compound 50, 2-(2,6-dioxopiperidin-3-yl)-4-((6-(3-fluoro-2-methoxypyridin-4-yl)-1-methyl-2-oxo-1,2,3,4-tetrahydroquinolin-7-yl)amino)isoindoline-1,3-dione] | 10 to 100 | – | < 30 | – |
| Cc1cc(-c2cc3c(cc2Nc2cccc4c2C(=O)N([C@]2(C)CCC(=O)NC2=O)C4=O)N(C)C(=O)CC3)ccn1 [Compound 53, (R)-2-(3-methyl-2,6-dioxopiperidin-3-yl)-4-((1-methyl-6-(2-methylpyridin-4-yl)-2-oxo-1,2,3,4-tetrahydroquinolin-7-yl)amino)isoindoline-1,3-dione] | > 100 | – | > 100 | – |
| CC1(N2C(=O)c3cccc(Nc4cccc(COc5ccccc5)c4)c3C2=O)CCC(=O)NC1=O (stereo not shown) [Compound 54, 2-(3-methyl-2,6-dioxopiperidin-3-yl)-4-((3-(phenoxymethyl)phenyl)amino)isoindoline-1,3-dione] | > 100 | – | > 100 | – |
| Cc1cc(-c2cc3c(cc2Nc2cccc4c2C(=O)N([C@H]2CCC(=O)NC2=O)C4=O)N(C)C(=O)CC3)cn(C)c1=O [Compound 35, (S)-4-((6-(1,5-dimethyl-6-oxo-1,6-dihydropyridin-3-yl)-1-methyl-2-oxo-1,2,3,4-tetrahydroquinolin-7-yl)amino)-2-(2,6-dioxopiperidin-3-yl)isoindoline-1,3-dione] | 10 to 100 | 30 to 100 | – | – |
| COc1cc(-c2cc3c(cc2Nc2cccc4c2C(=O)N(C2CCC(=O)NC2=O)C4=O)N(C)C(=O)CC3)c(F)cn1 (stereo not shown) [Compound 51, 2-(2,6-dioxopiperidin-3-yl)-4-((6-(5-fluoro-2-methoxypyridin-4-yl)-1-methyl-2-oxo-1,2,3,4-tetrahydroquinolin-7-yl)amino)isoindoline-1,3-dione] | 10 to 100 | 30 to 100 | – | – |
| Cc1nn(C)cc1-c1cc2c(cc1Nc1cccc3c1C(=O)N([C@H]1CCC(=O)NC1=O)C3=O)N(C)C(=O)CC2 [Compound 38, (S)-4-((6-(1,3-dimethyl-1H-pyrazol-4-yl)-1-methyl-2-oxo-1,2,3,4-tetrahydroquinolin-7-yl)amino)-2-(2,6-dioxopiperidin-3-yl)isoindoline-1,3-dione] | 10 to 100 | – | < 30 | – |
| CN1C(=O)CCc2cc(C3CC3)c(Nc3cccc4c3C(=O)N(C3CCC(=O)NC3=O)C4=O)cc21 (stereo not shown) [Compound 34, 4-((6-cyclopropyl-1-methyl-2-oxo-1,2,3,4-tetrahydroquinolin-7-yl)amino)-2-(2,6-dioxopiperidin-3-yl)isoindoline-1,3-dione] | 10 to 100 | – | < 30 | – |
| CN1C(=O)CCc2cc(-c3cnn(C4CC4)c3)c(Nc3cccc4c3C(=O)N([C@H]3CCC(=O)NC3=O)C4=O)cc21 [Compound 37, (S)-4-((6-(1-cyclopropyl-1H-pyrazol-4-yl)-1-methyl-2-oxo-1,2,3,4-tetrahydroquinolin-7-yl)amino)-2-(2,6-dioxopiperidin-3-yl)isoindoline-1,3-dione] | – | – | < 30 | < 10 |
| CN1C(=O)CCc2cc(-c3cnn(C)c3)c(Nc3cccc4c3C(=O)N(C3CCC(=O)NC3=O)C4=O)cc21 (stereo not shown) [Compound 36, 2-(2,6-dioxopiperidin-3-yl)-4-((1-methyl-6-(1-methyl-1H-pyrazol-4-yl)-2-oxo-1,2,3,4-tetrahydroquinolin-7-yl)amino)isoindoline-1,3-dione] | 10 to 100 | – | < 30 | – |
| COc1cc(-c2cc3c(cc2Nc2cccc4c2C(=O)N([C@H]2CCC(=O)NC2=O)C4=O)N(C)C(=O)CC3)cc(C)n1 [Compound 49, (S)-2-(2,6-dioxopiperidin-3-yl)-4-((6-(2-methoxy-6-methylpyridin-4-yl)-1-methyl-2-oxo-1,2,3,4-tetrahydroquinolin-7-yl)amino)isoindoline-1,3-dione] | – | – | < 30 | < 10 |
